Experimental data: patent US10766896B2, “Imidazo[4,5-c] ring compounds containing guanidine substituted benzamide groups” (3M INNOVATIVE PROPERTIES COMPANY, priority 2017, dated 2020)
Structures can show the parent of a compound that is named as a salt.

Test system: Human peripheral blood mononuclear cells (PBMC)
Assay: Cytokine Induction in Human Cells (PBMC; IFN-alpha by ELISA, IFN-gamma and TNF-alpha by multiplex bead assay)
Format: cell-based
Settings: 21-24 hrs culture, lowest concentration inducing cytokine at least 2× greater than negative control; for MEC to Induce Cytokine IFN-alpha: ELISA; for MEC to Induce Cytokine IFN-gamma / MEC to Induce Cytokine TNF-alpha: multiplex bead assay
Method: Interferon-alpha (IFN-alpha), interferon-gamma (IFN-gamma) and tumor necrosis factor-alpha (TNF-alpha) cytokine levels (pg/mL) were measured using the procedure ‘Cytokine Induction of Human Cells’ described below. The only difference was that for Examples 2, 3, and 4 the diluted compounds were transferred to the PBMCs to achieve final compound concentrations of 100, 33.3, 11.1, 3.7, 1.23, and 0.41 micromolar. The positive control wells contained imiquimod serially diluted to concentrations of 100, 33.3, 11.1, 3.7, 1.23, and 0.41 micromolar. For Example 5, the diluted compound and positive control (imiquimod) were individually transferred to the PBMCs to achieve final concentrations of 30, 10, 3.3, 1.1, 0.37, 0.12, 0.04, and 0.01 micromolar. According to the procedure described below, IFN-alpha cytokine levels (pg/mL) were measured by using the ELISA assay (human IFN-α, pan specific, Mabtech, Cincinnati, Ohio). IFN-gamma and TNF-alpha levels (pg/mL) were measured by using the multiplex bead assay (magnetic beads, R & D Systems Minneapolis, Minn.) according to the manufacturer's instructions. […] Specifically, the minimum effective concentration of each compound (micromolar) was determined as the lowest concentration of the compound that induced a measured cytokine response at a level ([…]) that was at least 2× greater than that observed with the negative control wells.
Cytokine Induction in Human Cells
Whole blood can be obtained from healthy human donors and collected by venipuncture into vacutainer tubes or syringes containing EDTA. Human peripheral blood mononuclear cells (PBMC) are purified from the whole blood by density gradient centrifugation. Histopaque 1077 (15 mL, Sigma, St. Louis, Mo.) is transferred to 6×50 mL sterile polypropylene conical tubes. The Histopaque is overlayed with 15-25 mL of blood diluted 1:2 in Hank's Balanced Salts Solution (HBSS) (Gibco, Life Technology, Grand Island N.Y.). The tubes are then centrifuged at 1370 rpm for 30 minutes at 20° C., with no brake (400×g, GH 3.8A Rotor).
The interface (buffy coat) containing the PBMC is collected and placed in a new sterile 50 mL conical polypropylene centrifuge tube. The PBMC are mixed with an equal volume of HBSS about 20 mL from the interface and about 20 mL of HBSS), and then centrifuged at 1090 rpm, 10 min, 20° C., with brake (270×g, GH 3.8A Rotor). After completing centrifugation, the cells are resuspended in 2-3 mL ACK Red blood cell lysis buffer (ammonium chloride potassium solution, Gibco, Life Technology) and incubated for 2-5 minutes at 20° C. Next, HBSS (40 mL) is added to the cells, and the sample is centrifuged at 270×g for 10 min at 20° C. The supernatant is decanted, and the cell pellet is resuspended in 5 mL AIM V® Medium (Gibco, Life Technology). Cell aggregates and debris are removed by filtering the cell solution through a BD Falcon 70 micron nylon cell strainer (BD Biosciences, San Jose, Calif.).
The number of viable cells is determined by counting with a Miltenyi FACS instrument (Miltenyi Biotec Inc., San Diego, Calif.) or by using a hemacytometer. For determining cell viability with a hemacytometer, the cells are diluted 1/10 in 0.4% trypan blue and HBSS (specifically, 50 microliter of trypan blue+40 microliter of HBSS+10 microliter of cell solution are added to a microfuge tube and mixed). Ten microliters of the diluted cells are then applied to the hemacytometer, and the number of viable PBMC are determined by microscopy.
The PBMC sample is then resuspended in 96-well plates at a concentration of 8×10^5 cells/well in 0.1 mL of AIM-V medium. Each compound is solubilized in DMSO to create a 3 mM stock solution. The stock solution is then further diluted with AIM-V medium to prepare the serial dilutions. The diluted compound (100 microliters) is then transferred to the PBMCs to achieve final compound concentrations of 10, 1, 0.1, 0.01, 0.001, 0.0001 micromolar. The plates also have both positive and negative controls. […]

Structure (SMILES) | MEC to Induce Cytokine IFN-alpha | MEC to Induce Cytokine IFN-gamma | MEC to Induce Cytokine TNF-alpha
CCCCc1nc2c(N)nc3ccccc3c2n1CCOCCNC(=O)c1ccc(CNC(=N)N)cc1 [Example 2, N-[2-[2-(4-amino-2-butyl-imidazo[4,5-c]quinolin-1-yl)ethoxy]ethyl]-4-(guanidinomethyl)benzamide dihydrochloride] | 1.2 µM | 1.2 µM | 3.7 µM
CCCc1nc2c(N)nc3ccccc3c2n1CCCCNC(=O)c1ccc(CNC(=N)N)cc1 [Example 3, N-[4-(4-amino-2-propyl-imidazo[4,5-c]quinolin-1-yl)butyl]-4-(guanidinomethyl)benzamide dihydrochloride] | 3.7 µM | 3.7 µM | 3.7 µM
CCCCc1nc2c(N)nc3ccccc3c2n1CCCCNC(=O)c1ccc(NC(=N)N)cc1 [Example 4, N-[4-(4-amino-2-butyl-imidazo[4,5-c]quinolin-1-yl)butyl]-4-guanidinobenzamide dihydrochloride] | 0.4 µM | 3.7 µM | 1.2 µM
CCCCc1nc2c(N)nc3ccccc3c2n1CCCCNC(=O)c1ccc(CNC(=N)N)cc1 [Example 5, N-[4-(4-amino-2-butyl-imidazo[4,5-c]quinolin-1-yl)butyl]-4-(guanidinomethyl)benzamide dihydrochloride] | 0.37 µM | 1.1 µM | 
